Experimental data taken from patent publication US10357493B2, “Metalloenzyme inhibitor compounds” (Selenity Therapeutics (Bermuda), Ltd., priority 2017, dated 2019).

Key:
[1] = biological target: HDAC1 (Homo sapiens (Human), UniProt Q13547); assay: HDAC1 enzymatic assay; type: biochemical; settings: read-out: Human HDAC1 IC50
Protocol: (§1) All enzymatic reactions were conducted in duplicate at room temperature for 17 hours in a 50 μl mixture containing HDAC assay buffer (50 mM Tris-HCl, pH 7.4, 137 mM NaCl, 2.7 mM KCl, 0.05% Tween 20, 5 μg BSA), an HDAC substrate, an HDAC enzyme, and a test compound. Compound dilution was prepared ten-fold higher than the final concentration of the compounds with 10% DMSO in HDAC assay buffer and 5 μl of the dilution was added to a 50 μl reaction so that the final concentration of DMSO is 1% in all of reactions. After enzymatic reactions, 50 μl of HDAC Developer was added to each well and the plate was incubated at room temperature for an additional 20 minutes. Fluorescence intensity was measured at an excitation of 360 nm and an emission of 460 nm using a Tecan Infinite M1000 or Biotek Synergy microplate reader.
(§2) The fluorescent intensity data were analyzed using the computer software, Graphpad Prism. In the absence of the compound, the fluorescent intensity (Ft) in each data set was defined as 100% activity. In the absence of HDAC, the fluorescent intensity (Fb) in each data set was defined as 0% activity. The percent activity in the presence of each compound was calculated according to the following equation: % activity=(F−Fb)/(Ft−Fb), where F=the fluorescent intensity in the presence of the compound.
(§3) The values of % activity versus a series of compound concentrations were then plotted using non-linear regression analysis of Sigmoidal dose-response curve generated with the equation Y=B+(T−B)/1+10((Log EC50−X)×Hill Slope), where Y=percent activity, B=minimum percent activity, T=maximum percent activity, X=logarithm of compound and Hill Slope=slope factor or Hill coefficient. The IC50 value was determined by the concentration causing a half-maximal percent activity.
(§4) HDAC1 enzymatic assays contained 0.5 ng HDAC1 and 10 uM of HDAC substrate. HDAC2 enzymatic assays contained 0.5 ng HDAC2 and 10 uM of HDAC substrate. HDAC3 enzymatic assays contained 0.4 ng HDAC3/NCOR2 and 10 uM of HDAC substrate. HDAC4 enzymatic assays contained 0.02 ng HDAC4 and 2 uM of HDAC substrate. HDAC5 enzymatic assays contained 0.5 ng HDAC5 and 2 uM of HDAC substrate. HDAC6 enzymatic assays contained 2 ng HDAC6 and 10 uM of HDAC substrate. HDAC7 enzymatic assays contained 0.05 ng HDAC7 and 2 uM of HDAC substrate. HDAC8 enzymatic assays contained 5 ng HDAC8 and 2 uM of HDAC substrate. HDAC9 enzymatic assays contained 1 ng HDAC9 and 2 uM of HDAC substrate. HDAC10 enzymatic assays contained 75 ng HDAC10 and 10 uM of HDAC substrate. HDAC11 enzymatic assays contained 5 ng HDAC11 and 2 uM of HDAC substrate.

[2] = biological target: HDAC6 (Homo sapiens (Human), UniProt Q9UBN7); assay: HDAC6 enzymatic assay; type: biochemical; settings: read-out: Human HDAC6 IC50
Protocol: as §1, §2, §3, §4

Chain of HDAC1 (Q13547 whole entry): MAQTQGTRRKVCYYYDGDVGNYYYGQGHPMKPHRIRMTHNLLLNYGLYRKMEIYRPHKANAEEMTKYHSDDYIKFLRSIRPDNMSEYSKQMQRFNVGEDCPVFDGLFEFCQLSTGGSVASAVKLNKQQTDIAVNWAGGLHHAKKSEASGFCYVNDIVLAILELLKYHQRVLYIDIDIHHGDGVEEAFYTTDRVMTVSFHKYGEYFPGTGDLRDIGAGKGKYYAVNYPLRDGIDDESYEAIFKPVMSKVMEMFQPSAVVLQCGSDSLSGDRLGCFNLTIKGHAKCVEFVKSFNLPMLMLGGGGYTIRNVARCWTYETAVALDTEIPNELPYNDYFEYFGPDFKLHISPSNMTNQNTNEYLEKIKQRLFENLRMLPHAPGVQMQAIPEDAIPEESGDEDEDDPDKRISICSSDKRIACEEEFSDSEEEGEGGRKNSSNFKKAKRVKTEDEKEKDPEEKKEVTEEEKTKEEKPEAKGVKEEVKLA
Chain of HDAC6 (Q9UBN7 whole entry): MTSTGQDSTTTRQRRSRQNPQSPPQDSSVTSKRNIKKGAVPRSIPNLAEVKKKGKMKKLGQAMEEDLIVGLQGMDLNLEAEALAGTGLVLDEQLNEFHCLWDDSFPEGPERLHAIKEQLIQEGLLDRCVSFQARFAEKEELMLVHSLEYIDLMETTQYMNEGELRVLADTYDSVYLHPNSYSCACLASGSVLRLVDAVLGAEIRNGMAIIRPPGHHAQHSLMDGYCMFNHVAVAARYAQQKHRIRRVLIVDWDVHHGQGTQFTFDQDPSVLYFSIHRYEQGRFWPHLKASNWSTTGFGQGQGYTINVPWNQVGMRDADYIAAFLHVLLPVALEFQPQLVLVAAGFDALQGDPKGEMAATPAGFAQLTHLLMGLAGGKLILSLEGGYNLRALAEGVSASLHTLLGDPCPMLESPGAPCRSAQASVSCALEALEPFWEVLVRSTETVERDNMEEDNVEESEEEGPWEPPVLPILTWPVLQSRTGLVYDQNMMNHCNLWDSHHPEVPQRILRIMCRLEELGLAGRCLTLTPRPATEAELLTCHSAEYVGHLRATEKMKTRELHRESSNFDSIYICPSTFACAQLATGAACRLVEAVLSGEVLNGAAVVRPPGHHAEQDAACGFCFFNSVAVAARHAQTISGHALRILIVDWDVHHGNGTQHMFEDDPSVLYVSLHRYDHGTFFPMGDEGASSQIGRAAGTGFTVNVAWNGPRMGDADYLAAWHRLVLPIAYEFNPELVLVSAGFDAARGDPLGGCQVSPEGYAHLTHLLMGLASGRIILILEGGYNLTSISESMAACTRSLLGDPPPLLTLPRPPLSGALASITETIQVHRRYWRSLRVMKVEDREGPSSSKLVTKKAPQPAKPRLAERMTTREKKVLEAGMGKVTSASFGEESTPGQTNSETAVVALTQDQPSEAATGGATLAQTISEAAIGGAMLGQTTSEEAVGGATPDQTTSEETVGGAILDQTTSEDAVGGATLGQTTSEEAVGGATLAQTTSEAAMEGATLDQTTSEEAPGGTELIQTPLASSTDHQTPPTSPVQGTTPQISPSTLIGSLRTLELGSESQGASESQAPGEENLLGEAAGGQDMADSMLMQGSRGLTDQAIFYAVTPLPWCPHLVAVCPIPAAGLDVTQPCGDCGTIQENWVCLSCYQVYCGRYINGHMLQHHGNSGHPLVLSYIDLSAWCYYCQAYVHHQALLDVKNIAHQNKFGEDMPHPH

| SMILES | IC50 [1] | IC50 [2] |
| --- | --- | --- |
| O=C(C1CC1)N(CC(Nc1ncc(-c2nnc(C(F)F)o2)cn1)c1ccc(F)cc1)CC(F)(F)F (single isomer, unassigned) [170(+), N-(2-((5-(5-(difluoromethyl)-1,3,4-oxadiazol-2-yl)pyrimidin-2-yl)amino)-2-(4-fluorophenyl)ethyl)-N-(2,2,2-trifluoroethyl)cyclopropanecarboxamide] | > 30 µM | 160 nM |
| O=C(C1CC1)N(CC(Nc1ncc(-c2nnc(C(F)F)o2)cn1)c1ccc(F)cc1)CC(F)(F)F (single isomer, unassigned) [170(−), N-(2-((5-(5-(difluoromethyl)-1,3,4-oxadiazol-2-yl)pyrimidin-2-yl)amino)-2-(4-fluorophenyl)ethyl)-N-(2,2,2-trifluoroethyl)cyclopropanecarboxamide] | > 30 µM | 1000 nM |
| CS(=O)(=O)NCC(Nc1ncc(-c2nnc(C(F)F)o2)cn1)c1ccc(F)c(F)c1 (single isomer, unassigned) [171(−), N-(2-((5-(5-(difluoromethyl)-1,3,4-oxadiazol-2-yl)pyrimidin-2-yl)amino)-2-(3,4-difluorophenyl)ethyl)methanesulfonamide] | > 30 µM | 590 nM |
| CS(=O)(=O)N(CC(Nc1ncc(-c2nnc(C(F)F)o2)cn1)c1ccc(F)c(F)c1)CC(F)(F)F (single isomer, unassigned) [172(A), N-(2-((5-(5-(difluoromethyl)-1,3,4-oxadiazol-2-yl)pyrimidin-2-yl)amino)-2-(3,4-difluorophenyl)ethyl)-N-(2,2,2-trifluoroethyl)methanesulfonamide] | > 30 µM | 320 nM |
| CS(=O)(=O)N(CC(Nc1ncc(-c2nnc(C(F)F)o2)cn1)c1ccc(F)c(F)c1)CC(F)(F)F (single isomer, unassigned) [172(B), N-(2-((5-(5-(difluoromethyl)-1,3,4-oxadiazol-2-yl)pyrimidin-2-yl)amino)-2-(3,4-difluorophenyl)ethyl)-N-(2,2,2-trifluoroethyl)methanesulfonamide] | > 30 µM | 86 nM |
| CS(=O)(=O)NCC(Nc1ncc(-c2nnc(C(F)F)o2)cn1)c1ccc(Cl)cc1 (single isomer, unassigned) [173(−), N-(2-(4-chlorophenyl)-2-((5-(5-(difluoromethyl)-1,3,4-oxadiazol-2-yl)pyrimidin-2-yl)amino)ethyl)methanesulfonamide] | > 30 µM | 490 nM |
| CS(=O)(=O)N(CC(Nc1ncc(-c2nnc(C(F)F)o2)cn1)c1ccc(Cl)cc1)CC(F)(F)F (single isomer, unassigned) [174(+), N-(2-(4-chlorophenyl)-2-((5-(5-(difluoromethyl)-1,3,4-oxadiazol-2-yl)pyrimidin-2-yl)amino)ethyl)-N-(2,2,2-trifluoroethyl)methanesulfonamide] | > 30 µM | 170 nM |
| CS(=O)(=O)N(CC(Nc1ncc(-c2nnc(C(F)F)o2)cn1)c1ccc(Cl)cc1)CC(F)(F)F (single isomer, unassigned) [174(−), N-(2-(4-chlorophenyl)-2-((5-(5-(difluoromethyl)-1,3,4-oxadiazol-2-yl)pyrimidin-2-yl)amino)ethyl)-N-(2,2,2-trifluoroethyl)methanesulfonamide] | > 30 µM | 110 nM |
| Fc1ccc(C(Cn2cnc(C(F)(F)F)c2)Nc2ncc(-c3nnc(C(F)F)o3)cn2)cc1 (single isomer, unassigned) [175(+), 5-(5-(difluoromethyl)-1,3,4-oxadiazol-2-yl)-N-(1-(4-fluorophenyl)-2-(4-(trifluoromethyl)-1H-imidazol-1-yl)ethyl)pyrimidin-2-amine] | > 30 µM | 160 nM |
| Fc1ccc(C(Cn2cnc(C(F)(F)F)c2)Nc2ncc(-c3nnc(C(F)F)o3)cn2)cc1 (single isomer, unassigned) [175(−), 5-(5-(difluoromethyl)-1,3,4-oxadiazol-2-yl)-N-(1-(4-fluorophenyl)-2-(4-(trifluoromethyl)-1H-imidazol-1-yl)ethyl)pyrimidin-2-amine] | > 30 µM | 1500 nM |
| Fc1ccc(C(Cn2cc(C(F)(F)F)cn2)Nc2ncc(-c3nnc(C(F)F)o3)cn2)cc1 (single isomer, unassigned) [176(+), 5-(5-(difluoromethyl)-1,3,4-oxadiazol-2-yl)-N-(1-(4-fluorophenyl)-2-(4-(trifluoromethyl)-1H-pyrazol-1-yl)ethyl)pyrimidin-2-amine] | > 30 µM | 160 nM |
| Fc1ccc(C(Cn2cc(C(F)(F)F)cn2)Nc2ncc(-c3nnc(C(F)F)o3)cn2)cc1 (single isomer, unassigned) [176(−), 5-(5-(difluoromethyl)-1,3,4-oxadiazol-2-yl)-N-(1-(4-fluorophenyl)-2-(4-(trifluoromethyl)-1H-pyrazol-1-yl)ethyl)pyrimidin-2-amine] | > 30 µM | 1500 nM |
| O=C1CCCN1CC(Nc1ncc(-c2nnc(C(F)F)o2)cn1)c1ccc(F)cc1 (single isomer, unassigned) [177(+), 1-(2-((5-(5-(difluoromethyl)-1,3,4-oxadiazol-2-yl)pyrimidin-2-yl)amino)-2-(4-fluorophenyl)ethyl)pyrrolidin-2-one] | > 30 µM | 110 nM |
| O=C1CCCN1CC(Nc1ncc(-c2nnc(C(F)F)o2)cn1)c1ccc(F)cc1 (single isomer, unassigned) [177(−), 1-(2-((5-(5-(difluoromethyl)-1,3,4-oxadiazol-2-yl)pyrimidin-2-yl)amino)-2-(4-fluorophenyl)ethyl)pyrrolidin-2-one] | > 30 µM | 76 nM |
| CC(NS(C)(=O)=O)C(Nc1ncc(-c2nnc(C(F)F)o2)cn1)c1ccc(F)cc1 (single isomer, unassigned) [Example 127A, N-(1-((5-(5-(difluoromethyl)-1,3,4-oxadiazol-2-yl)pyrimidin-2-yl)amino)-1-(4-fluorophenyl)propan-2-yl)methanesulfonamide] | > 30 µM | 45 nM |
| CC(NS(C)(=O)=O)C(Nc1ncc(-c2nnc(C(F)F)o2)cn1)c1ccc(F)cc1 (single isomer, unassigned) [Example 127B, N-(1-((5-(5-(difluoromethyl)-1,3,4-oxadiazol-2-yl)pyrimidin-2-yl)amino)-1-(4-fluorophenyl)propan-2-yl)methanesulfonamide] | > 30 µM | 49 nM |
| Fc1ccc(C(COC2CC2)Nc2ncc(-c3nnc(C(F)F)o3)cn2)c(F)c1 (single isomer, unassigned) [Example 134A, N-(2-cyclopropoxy-1-(2,4-difluorophenyl)ethyl)-5-(5-(difluoromethyl)-1,3,4-oxadiazol-2-yl)pyrimidin-2-amine] | > 30 µM | 220 nM |
| Fc1ccc(C(CC(F)(F)F)Nc2ncc(-c3nnc(C(F)F)o3)cn2)cc1 (single isomer, unassigned; (+)) [13(+), (+)-5-(5-(difluoromethyl)-1,3,4-oxadiazol-2-yl)-N-(3,3,3-trifluoro-1-(4-fluorophenyl)propyl)pyrimidin-2-amine] | > 30 µM | 30 nM |
| CC(Nc1ncc(-c2nnc(C(F)F)o2)cn1)c1ccc(F)cc1 (single isomer, unassigned; (+)) [20(+), (+)-5-(5-(difluoromethyl)-1,3,4-oxadiazol-2-yl)-N-(1-(4-fluorophenyl)ethyl)pyrimidin-2-amine] | > 30 µM | 21 nM |
| CC(Nc1ncc(-c2nnc(C(F)F)o2)cn1)c1c(F)cccc1F (single isomer, unassigned; (+)) [100(+), (+)-5-(5-(difluoromethyl)-1,3,4-oxadiazol-2-yl)-N-(1-(2,6-difluorophenyl)ethyl)pyrimidin-2-amine] | > 30 µM | 30 nM |
| O=S1(=O)CCCN1CC(Nc1ncc(-c2nnc(C(F)F)o2)cn1)c1ccc(F)cc1 (single isomer, unassigned; (+)) [120(+), (+)-2-(2-((5-(5-(difluoromethyl)-1,3,4-oxadiazol-2-yl)pyrimidin-2-yl)amino)-2-(4-fluorophenyl)ethyl)isothiazolidine 1,1-dioxide] | > 30 µM | 37 nM |
